According to patent publication US11919933B2, “Use of MYOG gene as target in preparation of drug for treating cardiomyocyte apoptosis-associated cardiovascular disease” (GUANGDONG BEATING ORIGIN REGENERATIVE MEDICINE CO., LTD., priority 2020, dated 2024):
Counter-ions that a name gives are not always drawn.

Tests used:
Type in all cases: cell-based, human
[1] = test system: MYOG expression in hiPSC-MYOG cells; experiment: qPCR detection of MYOG mRNA expression levels after Dox induction; conditions: Dox 2 μg/mL
Description: 2.1 Induction: The expression of MYOG was induced by adding Dox (Sigma, D9891) at a final concentration of 2 μg/mL to STEMUP, and DMSO was used as a control. In the control group, only DMSO (denoted as C1) was added to STEMUP. In the experimental group, both DOX and DMSO were added to STEMUP, where DOX was first added to DMSO, and then a resulting mixture (denoted as C2) was added to STEMUP. A final concentration of DOX in STEMUP was 2 μg/mL, and the C1 and C2 were added at a same amount. 2.2 Total RNA extraction: The UN1Q-10 column Trizol total RNA extraction kit (Sangon Biotech, B511321-0100) was used to extract total RNA of the cells (a sample was treated with deoxyribonuclease I (DNase I, Sangon Biotech, B618252) for 30 min in advance). 2.3 Reverse transcription: RNA was reverse-transcribed with the reverse transcription kit iScript Reverse Transcription Supermix (Bio-Rad, 1708841). 2.4 qPCR detection of MYOG mRNA expression levels: According to the instructions of SsoAdvanced™ Universal SYBR® Green Supermix (Bio-Rad, 1725271), the PikoReal Real-Time PCR system (Thermo Fisher) was used to design primers with […] as an internal reference, and then MYOG expression levels in hiPSC and hiPSC-MYOG (Dox-induced group and DMSO control group) were detected. Sequences of the primers were as follows: […]

hiPSC-MYOG-CMs = experiment: TUNEL apoptosis test of hiPSC-MYOG-CMs (Ang II / Dox groups); conditions: angiotensin II 1 mM, 6 d
Description: 5.1 Induction of hiPSC-MYOG-CM apoptosis with angiotensin II: Purified hiPSC-MYOG-CMs were divided into 4 groups (Ang II(+)&Dox(+), Ang II(+)&Dox(−), Ang II(−)&Dox(+), and Ang II(−)&Dox(−)) and then treated for 6 d with a Dox having a concentration of 2 μg/mL and an angiotensin II having a concentration of 1 mM.
5.3 Apoptosis assay: TUNEL test: The TdT in situ apoptosis detection kit (R&D Systems, 4812-30-K) was used to detect the apoptosis of cardiomyocytes in the 4 groups (Ang II(+)&Dox(+), Ang II(+)&Dox(−), Ang II(−)&Dox(+), and Ang II(−)&Dox(−)). Cardiomyocytes were digested, then added on a glass slide, and stained according to the kit instructions. Nuclei were labeled with DAPI.

hiPSC-CMs [2] = experiment: TUNEL apoptosis test of angiotensin II-treated hiPSC-CMs; conditions: angiotensin II 100 μM and 1 mM, 10 d
Description: (§1) 2.1 Induction of hiPSC-CM apoptosis with angiotensin II: Purified hiPSC-CMs were cultivated in a cardiomyocyte medium (MedChemExpress, HY-13948) with angiotensin II at different concentrations (1 nM, 10 nM, 100 nM, 1 μM, 10 μM, 100 μM, and 1 mM), and the angiotensin II-containing medium was changed every 2 days.
2.2.3 TUNEL test: The TdT in situ apoptosis detection kit (R&D Systems, 4812-30-K) was used to detect the apoptosis of cardiomyocytes treated with angiotensin II (1 nM, 1 μM, 100 μM, and 1 mM) and untreated with angiotensin II on day 10. Cardiomyocytes were digested, then added on a glass slide, and stained according to the kit instructions, and nuclei were labeled with DAPI.

hiPSC-CMs [3] = experiment: PrestoBlue cell viability assay of angiotensin II-treated hiPSC-CMs; conditions: angiotensin II 100 μM and 1 mM, long-term treatment (6 d and 10 d)
Description: as §1
2.2.1 A cardiomyocyte viability was detected with the PrestoBlue cell viability assay reagent (Invitrogen, A13261) at 24 h, 48 h, 6 d, and 10 d, and results are shown in FIG. 3.

hiPSC-CMs [4] = experiment: Annexin V apoptosis assay (flow cytometry) of angiotensin II-treated hiPSC-CMs; conditions: angiotensin II 100 μM and 1 mM, 10 d
Description: as §1
2.2.2 The apoptosis of cardiomyocytes treated with angiotensin II (100 μM and 1 mM) and untreated with angiotensin II on day 10 was detected with the apoptosis assay kit Annexin V, Alexa Fluor™488 conjugate (Invitrogen, V13201). Cardiomyocytes were labeled with the apoptosis marker Annexin V and then assayed with a FACSAria™ II flow cytometer (BD).

Molecule | expression level of MYOG in the Dox-induced group versus the DMSO control group [1] | apoptotic cell proportion relative to the control group (hiPSC-MYOG-CMs) | proportion of apoptotic cells (TUNEL) (hiPSC-CMs [2]) | cell viability (hiPSC-CMs [3]) | proportion of apoptotic cells (Annexin V) (hiPSC-CMs [4])
C[C@H]1c2cccc(O)c2C(=O)C2=C(O)[C@]3(O)C(=O)C(C(N)=O)=C(O)[C@@H](N(C)C)[C@@H]3[C@@H](O)[C@@H]21 [Dox, doxycycline hydrochloride] | more than 100 times |  |  |  | 
angiotensin II (DRVYIHPF; Angiotensin-2; UniProt P01019 25-32, looked up) [common inducer for establishing cardiomyocyte apoptosis models] |  | 2.01 times | increased significantly | decreased significantly | increased significantly
